Each block holds one molecule with its values, some of them ahead of it.
Legend:
[1] = biological target: PDI (Homo sapiens, UniProt P07237); assay: Insulin turbidity assay, PDI; format: biochemical; conditions: for Effect on enzyme activity of PDI: 300 μM, highest concentration tested
Description: (§1) Initial compound library screening was performed in an insulin turbidity assay adapted for high‐throughput screening (Holmgren, [1979]; Smith et al., [2004]). The reduction of the disulphide bond in insulin by a thiol isomerase results in the separation of the A and B chains and precipitation, which is measured by spectrophotometry at a wavelength of 650 nm. Using Corning 3891 well plates (with a final volume of 10 μl), a final concentration of 10 μg·ml^−1 of ERp57, 125‐μM insulin and 2‐mM EDTA in potassium phosphate buffer (100 mM) was added to each experimental well. Bacitracin (3 mM) was added to select wells as a positive control and vehicle plates served as a negative control. Experimental compounds were pin transferred to the wells at a final concentration of 30 μM and plates shaken. After incubation for 10 min, 0.3‐mM DTT was added to propagate enzyme activity. Following reaction for 1 hr at 37°C, plates were read using a PerkinElmer Envision plate reader (PerkinElmer, Waltham, MA). All compounds were tested in duplicate at the ICCB‐Longwood Screening Facility at Harvard Medical School.
(§2) Lead compounds were diluted in a 6‐point dose curve (concentrations depending on the observed effects in the initial screen) and insulin turbidity was measured kinetically each minute for 75 min using a Spectramax M3 microplate reader (Molecular Devices, Sunnyvale, CA). Specificity assay also utilised the insulin turbidity assay to determine specificity of inhibition; ERp57 was replaced with PDI (10 μg·ml^−1), ERp5 (30 μg·ml^−1), ERp72 (10 μg·ml^−1) or thioredoxin (10 μg·ml^−1), to determine the ability of lead compounds to inhibit these enzymes.
(§3) A total of 3,641 compounds were screened for inhibitory effects on the redox activity of ERp5, protein disulphide isomerase (PDI), ERp57, ERp72 and thioredoxin (TRX), all assayed at 10 μg·ml^−1 except ERp5 which was assayed at 30 μg·ml^−1. ZFL was selected for further investigation. […] (a) Enzyme assays performed in the absence of enzyme with drug only.

[2] = biological target: T1, ERp57 (Homo sapiens, UniProt P30101); assay: Insulin turbidity assay, ERp57; format: biochemical; conditions: for Effect on enzyme activity of ERp57: 300 μM, highest concentration tested
T1 sequence (P30101 25-505): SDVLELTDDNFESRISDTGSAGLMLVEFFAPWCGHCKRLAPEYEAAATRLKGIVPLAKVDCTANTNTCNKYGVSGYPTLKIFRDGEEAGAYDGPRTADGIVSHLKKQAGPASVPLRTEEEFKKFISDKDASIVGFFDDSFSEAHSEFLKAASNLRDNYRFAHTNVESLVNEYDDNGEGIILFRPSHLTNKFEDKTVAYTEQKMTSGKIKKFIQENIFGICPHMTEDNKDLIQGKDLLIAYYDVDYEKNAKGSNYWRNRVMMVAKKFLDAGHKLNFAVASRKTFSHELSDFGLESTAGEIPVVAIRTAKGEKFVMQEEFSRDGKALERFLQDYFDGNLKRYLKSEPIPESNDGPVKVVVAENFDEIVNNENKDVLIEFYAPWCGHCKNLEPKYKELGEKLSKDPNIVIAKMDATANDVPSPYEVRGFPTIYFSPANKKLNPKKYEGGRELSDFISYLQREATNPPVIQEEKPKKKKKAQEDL
Description: as §1, §2, §3

[3] = biological target: T2, thioredoxin (TRX) (Homo sapiens, UniProt P10599); assay: Insulin turbidity assay, thioredoxin; format: biochemical; conditions: for Effect on enzyme activity of thioredoxin: 300 μM, highest concentration tested
T2 sequence (P10599 1-105): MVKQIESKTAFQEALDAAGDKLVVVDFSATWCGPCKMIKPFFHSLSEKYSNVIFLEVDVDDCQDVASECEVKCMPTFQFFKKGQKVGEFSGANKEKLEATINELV
Description: as §1, §2, §3

[4] = biological target: T3, ERp72 (Homo sapiens, UniProt P13667); assay: Insulin turbidity assay, ERp72; format: biochemical; conditions: ERp72 10 μg·ml^−1, 650 nm, 37°C
T3 sequence (P13667 21-645): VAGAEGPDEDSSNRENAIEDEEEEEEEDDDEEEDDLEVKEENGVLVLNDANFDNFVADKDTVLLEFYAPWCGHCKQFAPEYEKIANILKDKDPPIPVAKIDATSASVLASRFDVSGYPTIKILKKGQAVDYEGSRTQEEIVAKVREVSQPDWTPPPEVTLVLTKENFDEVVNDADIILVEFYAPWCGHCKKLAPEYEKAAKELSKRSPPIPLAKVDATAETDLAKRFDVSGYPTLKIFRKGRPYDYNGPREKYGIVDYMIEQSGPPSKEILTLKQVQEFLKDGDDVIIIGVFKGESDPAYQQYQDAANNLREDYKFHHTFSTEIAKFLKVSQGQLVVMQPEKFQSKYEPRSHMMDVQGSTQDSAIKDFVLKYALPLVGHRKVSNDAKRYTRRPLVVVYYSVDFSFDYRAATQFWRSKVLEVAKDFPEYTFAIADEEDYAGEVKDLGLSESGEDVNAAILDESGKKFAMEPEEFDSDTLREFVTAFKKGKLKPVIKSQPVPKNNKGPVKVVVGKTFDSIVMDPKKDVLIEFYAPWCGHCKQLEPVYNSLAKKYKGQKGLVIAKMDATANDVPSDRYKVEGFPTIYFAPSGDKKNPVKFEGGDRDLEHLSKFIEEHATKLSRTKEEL
Description: as §1
(§4) Lead compounds were diluted in a 6‐point dose curve (concentrations depending on the observed effects in the initial screen) and insulin turbidity was measured kinetically each minute for 75 min using a Spectramax M3 microplate reader (Molecular Devices, Sunnyvale, CA). […]

[5] = biological target: T4, ERp5 (Homo sapiens, UniProt Q15084); assay: Insulin turbidity assay, ERp5; format: biochemical; conditions: ERp5 30 μg·ml^−1, 650 nm, 37°C
T4 sequence (Q15084 20-440): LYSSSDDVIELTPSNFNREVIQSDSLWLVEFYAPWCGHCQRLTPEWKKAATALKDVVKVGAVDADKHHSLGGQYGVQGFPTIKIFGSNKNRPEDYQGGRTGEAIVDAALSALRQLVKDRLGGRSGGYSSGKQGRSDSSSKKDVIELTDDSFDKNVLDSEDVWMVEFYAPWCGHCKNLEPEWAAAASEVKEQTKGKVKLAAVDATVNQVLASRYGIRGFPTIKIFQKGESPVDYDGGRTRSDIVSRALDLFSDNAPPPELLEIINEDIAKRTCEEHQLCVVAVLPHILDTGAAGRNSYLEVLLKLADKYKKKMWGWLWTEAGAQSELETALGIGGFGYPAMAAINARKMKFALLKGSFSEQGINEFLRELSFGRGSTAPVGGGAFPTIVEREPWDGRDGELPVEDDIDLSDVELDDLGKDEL
Description: as §1, §4

[6] = test system: thrombus formation; assay: Laser injury arterial thrombus formation, cremaster muscle arterioles, intravital microscopy; format: in vivo, mouse; conditions: 20 μM circulating concentration, i.v., male C57BL/6J mice, n = 12 thrombi
Description: (§5) Male C57BL/6J mice (RRID:IMSR_JAX:000664 bred in house, at age 4–5 weeks with a weight range of 19–25 g) were anaesthetised by intraperitoneal injection of ketamine (125 mg·kg^−1), xylazine (12.5 mg·kg^−1) and atropine (0.25 mg·kg^−1). Platelets were labelled by intravenous infusion of DyLight 649‐conjugated anti‐GPIb platelet labelling antibody (0.2 μg·g^−1 body weight). […] Thrombi were observed using an Olympus BX microscope (Olympus, Essex, UK) and a Hamamatsu (Hamamatsu Photonics, Hertfordshire, UK) CCD camera and data analysed using Slidebook Software version 5.0 (Intelligent Imaging Innovations, Denver, USA) (Falati et al., [2006]; Holbrook et al., [2018]; Holbrook et al., [2012]). Mice were killed using Schedule 1 approved methods at the end of the experiment. […] Time to bleeding cessation was recorded. […] Animal experiments were approved by the University of Reading Local Ethical Review Panel and authorised by the UK Home Office. […]
(§6) Following laser injury, images were recorded for 5 min. […] Graphs represent mean ± SEM, n = 10 per treatment; data were analysed by Student's t‐test, *P < 0.05

[7] = test system: haemostasis (bleeding time); assay: Tail bleeding assay; format: in vivo, mouse; conditions: 20 μM circulating concentration, femoral vein, 5 min before tail biopsy, n = 10; vehicle 225 s ± 28 s; not significant
Description: as §5, §6

[8] = test system: MDA-MB-231 cells; assay: Cell migration scratch assay, MDA-MB-231; format: cell-based, human; conditions: 20 μM, 37 hr
Description: (§7) MDA‐MB‐231 (ATCC Cat# HTB‐26, RRID:CVCL_0062) or HEK293T (ATCC Cat# CRL‐3216, RRID:CVCL_0063) were seeded into wells of a 12‐well plate (fibronectin coated, 10 μg·ml^−1) and grown to confluence in DMEM supplemented with 10% (v/v) FBS and 1% (v/v) penicillin–streptomycin. Following aspiration of media, a vertical scratch was performed to bisect the well and detached cells were removed by PBS washes. […] Images were analysed using Zeiss Axiovision software, and closure areas calculated using Fiji ImageJ. At 37/40 hr post‐scratch, cells were fixed in 4% (v/v) paraformaldehyde for 20 min and permeabilised with 0.2% (v/v) Triton X‐100 for 10 min. Cells were stained with phalloidin‐568 (dilution of 1:250, in PBS) for 1 hr and following washes, counterstained with DAPI (1:1,000) for 20 min. Cells were washed in PBS and mounted using Vectashield H‐1000.

[9] = test system: MDA-MB-231 cells; assay: 3-day growth inhibition (proliferation) assay, MDA-MB-231; format: cell-based, human; conditions: 72 hr
Description: (§8) MDA‐MB‐231 or HEK293T cells were seeded at a density of 2.5 × 10^5 cells per well in a six‐well cell culture plate and grown for 24 hr. […] Following drug treatment, wells were washed and cells manually counted by haemocytometer or automatically using a Coulter counter (Beckman Coulter, CA, USA). Cell growth inhibition was calculated by comparing the counts of drug treated cells with untreated (control) cells as described previously (Kennedy et al., [2007]).

[10] = test system: MDA-MB-231 cell-surface free thiols; assay: Cell-surface free thiol labelling with MPB, MDA-MB-231; format: cell-based, human; conditions: 20 μM, vs vehicle
Description: (§9) MDA‐MB‐231 or HEK293T cells were cultured and treated as described before. Four hours post‐treatment, cells were washed with PBS, and free thiols labelled by incubation with MPB (100 μM) for 20 min. Free label was removed by multiple PBS washes, and cells were lysed in reducing sample treatment buffer for SDS‐PAGE analysis. Thiol labelling was detected using streptavidin‐HRP conjugate (1:10,000 dilution in 5% [w/v] BSA/TBS‐T), and chemiluminescence captured following the addition of ECL substrate.

[11] = test system: HEK293T cells; assay: Cell migration scratch assay, HEK293T; format: cell-based, human; conditions: 20 μM, 40 hr
Description: as §7

[12] = test system: HEK293T cells; assay: Proliferation assay, HEK293T; format: cell-based, human; conditions: 1–30 μM, 72 hr
Description: as §8

[13] = test system: HEK293T cell-surface free thiols; assay: Cell-surface free thiol labelling with MPB, HEK293T; format: cell-based, human; conditions: 20 μM, vs vehicle
Description: as §9

[14] = design: method as in Fischer et al., [2000]; conditions: oral 20 mg twice daily; ref Fischer et al., [2000]; cited from earlier work

Chain of PDI (P07237 18-508, species assumed): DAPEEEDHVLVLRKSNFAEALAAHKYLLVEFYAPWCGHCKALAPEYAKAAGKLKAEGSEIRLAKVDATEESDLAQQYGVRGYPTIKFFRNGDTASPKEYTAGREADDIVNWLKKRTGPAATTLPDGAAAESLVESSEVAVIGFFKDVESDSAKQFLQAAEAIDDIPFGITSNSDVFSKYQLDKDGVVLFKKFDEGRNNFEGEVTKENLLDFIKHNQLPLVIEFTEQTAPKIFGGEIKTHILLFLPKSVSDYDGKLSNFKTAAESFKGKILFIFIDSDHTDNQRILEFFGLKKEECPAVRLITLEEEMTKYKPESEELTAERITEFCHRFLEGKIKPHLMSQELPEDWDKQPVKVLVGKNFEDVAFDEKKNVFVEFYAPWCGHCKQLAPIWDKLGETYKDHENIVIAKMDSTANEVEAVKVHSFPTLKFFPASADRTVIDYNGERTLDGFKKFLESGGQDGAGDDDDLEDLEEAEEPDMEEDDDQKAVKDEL

Effect on enzyme activity of PDI [1]: almost entirely ablate
Effect on enzyme activity of ERp57 [2]: almost entirely ablate
Effect on enzyme activity of thioredoxin [3]: almost entirely ablate
SMILES: CC(C)(O)c1ccccc1CC[C@@H](SCC1(CC(=O)O)CC1)c1cccc(/C=C/c2ccc3ccc(Cl)cc3n2)c1 [montelukast]

Effect on enzyme activity of PDI [1]: almost entirely ablate
Inhibition of PDI activity, concentration dependence ([1]; PDI 10 μg·ml^−1, 650 nm, 37°C): concentration dependently inhibits
Effect on enzyme activity of ERp57 [2]: almost entirely ablate
Inhibition of ERp57 activity, concentration dependence ([2]; ERp57 10 μg·ml^−1, 650 nm, 37°C): concentration dependently inhibits
Effect on enzyme activity of thioredoxin [3]: almost entirely ablate
Inhibition of thioredoxin (TRX) activity, concentration dependence ([3]; TRX 10 μg·ml^−1, 650 nm, 37°C): concentration dependently inhibits
Inhibition of ERp72 activity, concentration dependence [4]: concentration dependently inhibits
Inhibition of ERp5 activity, concentration dependence [5]: concentration dependently inhibits
Bleeding time [7]: 243 s
SMILES: COc1cc(C(=O)NS(=O)(=O)c2ccccc2C)ccc1Cc1cn(C)c2ccc(NC(=O)OC3CCCC3)cc12 [zafirlukast]
Thrombus size (maximum fluorescence intensity) [6]: significantly impaired
Closure area at endpoint ([8]; vehicle 62,163 ± 23,552): 243,707 ± 51,057
Scratch area covered at endpoint ([8]; vehicle over 86%): 56%
Effect on cell proliferation ([9]; 20 μM): minimal effect
Reduction of proliferation ([9]; 30 μM): around 20%
Reduction of surface free thiol (MPB) labelling [10]: 42%
Closure area at endpoint ([11]; vehicle 80,686 [±15,705]): 1,475,154 [±81,061]
Scratch area coverage (migration) at endpoint ([11]; vehicle over 96%): 32%
Impairment of cell proliferation [12]: not detected
Decrease of surface MPB labelling [13]: 47%
Peak plasma concentration (cMax) [14]: 697 ng/mL
Peak plasma concentration, equivalent [14]: 1.2 µM
Time of peak plasma concentration [14]: 3 h
